# Data published in paper PMC9311539, “Antibacterial Activity against Clinical Isolates and In Vivo Efficacy of Coralmycins” (Antibiotics, 2022).
# “Also recorded” adds a separate entry of the source. Where two headings read alike, the source gives them in different places.
# Tests used:
# MSSA = test: MIC, broth microdilution, clinical isolates: MSSA; format: cell-based; settings: Staphylococcus aureus, 26 clinical isolates
# Experimental: (§1) To assess the MICs for antibiotic susceptibility, Gram-positive bacteria isolated from human clinical specimens were obtained from several general hospitals in Seoul, Korea, during 2002–2018. Staphylococcus aureus Giorgio and Streptococcus pneumoniae ATCC49619 were used to test in vivo efficacies against […], in mice.
# (§2) The MICs of the antimicrobial agents were determined by a twofold microdilution broth method, as described by the Clinical and Laboratory Standards Institute. Briefly, test organisms were grown on Mueller–Hinton agar (MHA, BD Difco, Sparks, MD, USA) plates, subcultured into cation-adjusted Mueller–Hinton broth (CAMHB, BD Difco, Sparks, MD, USA), and incubated for 18 h at 35 °C. For S. pneumoniae culture, 5% sheep blood (Hanil Comed, Seongnam, Korea) was added. The cultured bacteria were diluted using phosphate-buffered saline (PBS) to achieve a bacterial cell density of approximately 5 × 10^6 CFU/mL. All test organisms were loaded into 96-well plates containing serial dilutions of the antimicrobial agents to achieve a concentration of 5 × 10^4 CFU/well. The plates were incubated at 35 °C for 18–20 h and examined for bacterial growth.
# MRSA = test: MIC, broth microdilution, clinical isolates: MRSA; format: cell-based, Staphylococcus aureus
# Experimental: as §1, §2
# [1] = test system: CNS (coagulase-negative staphylococci); test: MIC, broth microdilution, clinical isolates: CNS; format: cell-based
# Experimental: as §1, §2
# VRE = test: MIC, broth microdilution, clinical isolates: VRE; format: cell-based, vancomycin-resistant Enterococcus
# Experimental: as §1, §2
# S. pneumoniae = test: MIC, broth microdilution, clinical isolates: S. pneumoniae; format: cell-based, Streptococcus pneumoniae
# Experimental: as §1, §2
# [2] = test system: Vancomycin-sensitive E. faecalis; test: MIC, broth microdilution, clinical isolates: vancomycin-sensitive E. faecalis; format: cell-based, Enterococcus faecalis
# Experimental: as §1, §2
# [3] = test system: Vancomycin-sensitive E. faecium; test: MIC, broth microdilution, clinical isolates: vancomycin-sensitive E. faecium; format: cell-based, Enterococcus faecium
# Experimental: as §1, §2
# S. aureus Giorgio [4] = test: MIC against S. aureus Giorgio; format: cell-based, Staphylococcus aureus
# Experimental: as §2
# S. pneumoniae ATCC49619 [5] = test: MIC against S. pneumoniae ATCC49619; format: cell-based; settings: Streptococcus pneumoniae, ATCC 25922 / ATCC 49619, printed as S. pneumoniae ATCC 25922; read-out: MIC
# Experimental: as §2
# MRSA CCARM 3167 [6] = test: MIC against MRSA CCARM 3167; format: cell-based; settings: Staphylococcus aureus; read-out: MIC
# Experimental: as §2
# VRE 3 [7] = test: MIC against VRE 3; format: cell-based, vancomycin-resistant Enterococcus; settings: Enterococcus, read-out: MIC
# Experimental: as §2
# S. aureus Giorgio [8] = test: Time-kill assay, S. aureus Giorgio; format: cell-based, Staphylococcus aureus
# Experimental: (§3) Time-kill analysis was performed by the NCCLS M26-A method. The test organisms (S. aureus Giorgio, S. pneumoniae ATCC49619, MRSA CCARM 3167, and VRE 3) incubated in CAMHB for 18 h at 35 °C were diluted to 10^5 CFU/mL with fresh CAMHB, and the diluted cultures were preincubated for 2 h. For S. pneumoniae culture, 5% sheep blood (Hanil Comed, Seongnam, Korea) was added. […] Culture aliquots (0.1 mL) were removed after 0, 2, 4, 6 and 24 h of incubation, and serial 10-fold dilutions were prepared in saline as needed. The numbers of viable cells were determined on drug-free MHA plates after 20 h of incubation. A compound was considered bactericidal if the original inoculum was reduced by 3 log CFU/mL (99.9%) at each concentration or was considered bacteriostatic if the inoculum was reduced by 0–3 log CFU/mL.
# S. pneumoniae ATCC49619 [9] = test: Time-kill assay, S. pneumoniae ATCC49619; format: cell-based, Streptococcus pneumoniae
# Experimental: as §3
# MRSA CCARM 3167 [10] = test: Time-kill assay, MRSA CCARM 3167; format: cell-based, Staphylococcus aureus
# Experimental: as §3
# VRE 3 [11] = test: Time-kill assay, VRE 3; format: cell-based, vancomycin-resistant Enterococcus
# Experimental: as §3
# S. aureus Giorgio [12] = test: Neutropenic mouse thigh infection model; format: in vivo, female ICR mice
# Experimental: (§4) For the respiratory tract infection model, neutropenic mice were anesthetized and intranasally inoculated with a 50 μL suspension of S. pneumoniae ATCC49619 (4.4 × 10^8 CFU/mL). For the thigh infection model, the neutropenic mice were administered an intramuscular injection of a 100 μL suspension of S. aureus Giorgio (1 × 10^6 CFU/mL) into both thighs. For both models, four mice were included in each group. At 2 h after infection, two mice were sacrificed, and the infected thighs or lungs (n = 4) were excised to determine the initial bacterial levels. […] At 24 h after infection, the mice were sacrificed by cervical dislocation; their thighs or lungs were removed, homogenized, serially diluted with saline, and plated onto MHA to count the number of bacteria remaining. The number of viable bacterial cells (CFU) in the thighs or lungs of vehicle- and drug-treated mice was determined.
# S. pneumoniae ATCC49619 [13] = test: Neutropenic mouse respiratory tract infection model; format: in vivo, female ICR mice
# Experimental: as §4
# [14] = second trial, s.c. 100 mg/kg bid
compound,measurement,setting,value
"CO[C@@H](C(N)=O)[C@H](NC(=O)c1ccc(NC(=O)c2ccc([N+](=O)[O-])cc2)cc1)C(=O)Nc1ccc(C(=O)Nc2ccc(C(=O)Nc3ccc(C(=O)O)c(O)c3OC(C)C)c(O)c2OC(C)C)cc1 [Coralmycin A, coralmycin A]",MIC50,MSSA; read-out: MIC50,0.5 µg/mL
same,MIC90,MSSA; read-out: MIC90,1 µg/mL
same,MIC90,MRSA; 42 clinical isolates,1 µg/mL
same,MIC50,"MRSA; Staphylococcus aureus, MRSA, 42 clinical isolates, read-out: MIC50",1 µg/mL
same,MIC90,"MRSA; Staphylococcus aureus, 42 MRSA isolates, read-out: MIC90",1 µg/mL
same,MIC90,[1]; 31 clinical isolates,1 µg/mL
same,MIC50,"[1]; 31 clinical isolates, read-out: MIC50",0.25 µg/mL
same,MIC90,"[1]; 31 coagulase-negative staphylococci isolates, read-out: MIC90",1 µg/mL
same,MIC90,VRE; 46 clinical isolates,1 µg/mL
same,MIC50,"VRE; Enterococcus, VRE, 46 clinical isolates, read-out: MIC50",0.5 µg/mL
same,MIC90,"VRE; Enterococcus, 46 VRE isolates, read-out: MIC90",1 µg/mL
same,MIC90,S. pneumoniae; 27 clinical isolates,1 µg/mL
same,MIC90,"S. pneumoniae; Streptococcus pneumoniae, 27 S. pneumoniae isolates, read-out: MIC90",1 µg/mL
same,MIC50,"S. pneumoniae; Streptococcus pneumoniae, 27 clinical isolates, read-out: MIC50",0.25 µg/mL
same,MIC90,[2]; 32 clinical isolates,2 µg/mL
same,MIC50,"[2]; Enterococcus faecalis, 32 clinical isolates, read-out: MIC50",1 µg/mL
same,MIC90,"[2]; vancomycin-sensitive Enterococcus faecalis, read-out: MIC90",2 µg/mL
same,MIC90,[3]; 32 clinical isolates,0.5 µg/mL
same,MIC50,"[3]; Enterococcus faecium, 32 clinical isolates, read-out: MIC50",0.25 µg/mL
same,MIC90,"[3]; vancomycin-sensitive Enterococcus faecium, read-out: MIC90",0.5 µg/mL
same,MIC,S. aureus Giorgio [4],3 ng/mL
same,MIC,"S. aureus Giorgio [4]; Staphylococcus aureus, read-out: MIC",6 ng/mL
same,MIC,S. pneumoniae ATCC49619 [5],10 µg/mL
same,MIC,MRSA CCARM 3167 [6],0.01 µg/mL
same,MIC,VRE 3 [7],0.5 µg/mL
same,time-kill activity,S. aureus Giorgio [8]; 0.5× MIC (Figure S4),bacteriostatic (considered bacteriostatic if the inoculum was reduced by 0–3 log CFU/mL)
same,time-kill activity,S. aureus Giorgio [8]; 1× MIC,bactericidal (considered bactericidal if the original inoculum was reduced by 3 log CFU/mL (99.9%) at each concentration)
same,time-kill activity,"S. aureus Giorgio [8]; 2× and 4× MIC, 24 h",bactericidal (considered bactericidal if the original inoculum was reduced by 3 log CFU/mL (99.9%) at each concentration)
same,time-kill activity,S. pneumoniae ATCC49619 [9]; 0.5× MIC (Figure S4),bacteriostatic (considered bacteriostatic if the inoculum was reduced by 0–3 log CFU/mL)
same,time-kill activity,S. pneumoniae ATCC49619 [9]; 1× MIC,bactericidal (considered bactericidal if the original inoculum was reduced by 3 log CFU/mL (99.9%) at each concentration)
same,time-kill activity,"S. pneumoniae ATCC49619 [9]; 2× and 4× MIC, 24 h",bactericidal (considered bactericidal if the original inoculum was reduced by 3 log CFU/mL (99.9%) at each concentration)
same,time-kill activity,MRSA CCARM 3167 [10]; 1× MIC,bactericidal (considered bactericidal if the original inoculum was reduced by 3 log CFU/mL (99.9%) at each concentration)
same,time-kill activity,"MRSA CCARM 3167 [10]; 2× and 4× MIC, 24 h",bactericidal (considered bactericidal if the original inoculum was reduced by 3 log CFU/mL (99.9%) at each concentration)
same,time-kill activity,VRE 3 [11]; 1× MIC,bactericidal (considered bactericidal if the original inoculum was reduced by 3 log CFU/mL (99.9%) at each concentration)
same,time-kill activity,"VRE 3 [11]; 2× and 4× MIC, 24 h",bactericidal (considered bactericidal if the original inoculum was reduced by 3 log CFU/mL (99.9%) at each concentration)
same,antibacterial effect in thigh infection model,S. aureus Giorgio [12]; 20 mg/kg bid,almost no antibacterial effect
same,antibacterial effect in thigh infection model,S. aureus Giorgio [12]; s.c. 4 and 20 mg/kg at 3 and 6 h after infection,almost no antibacterial effect
same,in vivo effect (bacteriostatic or bactericidal),S. pneumoniae ATCC49619 [13]; 4 mg/kg bid s.c.,bacteriostatic effects; also recorded: static effect
same,in vivo effect (bacteriostatic or bactericidal),S. pneumoniae ATCC49619 [13]; 20 mg/kg bid s.c.,bacteriostatic effects; also recorded: static effect
same,in vivo effect (bacteriostatic or bactericidal),S. pneumoniae ATCC49619 [13]; 100 mg/kg bid s.c.,significant bactericidal effects
same,reduction of bacterial burden in the lungs compared to the 24-h control group,"S. pneumoniae ATCC49619 [13]; first experiment, s.c. 4 mg/kg bid",1.43 log10 CFU
same,reduction of bacterial burden in the lungs compared to the 24-h control group,"S. pneumoniae ATCC49619 [13]; first experiment, s.c. 20 mg/kg bid",1.81 log10 CFU
same,antibacterial effect in respiratory tract infection model,"S. pneumoniae ATCC49619 [13]; first experiment, s.c. 4 and 20 mg/kg at 3 and 6 h after infection",significant antibacterial effects
same,reduction of bacterial burden in the lungs compared to the 24-h control group,"S. pneumoniae ATCC49619 [13]; second trial, s.c. 4 mg/kg bid",1.45 log10 CFU
same,reduction of bacterial burden in the lungs compared to the 24-h control group,"S. pneumoniae ATCC49619 [13]; second trial, s.c. 20 mg/kg bid",1.88 log10 CFU
same,reduction of bacterial burden in the lungs compared to the 24-h control group,S. pneumoniae ATCC49619 [13]; [14],3.02 log10 CFU
same,reduction of the starting bacterial burden compared to the 2-h control group,S. pneumoniae ATCC49619 [13]; [14],1.34 log10 CFU/lung
